Experimental data from patent publication US6211196A, “Benzyloxy-substituted, fused N-heterocycles, processes for their preparation, and their use as bradykinin receptor antagonists” (Aventis Pharma Deutschland GmbH, priority 1997, dated 2001).

Assays:
bradykinin β2 receptor = biological target: T1, bradykinin β2 receptor (Cavia porcellus, UniProt O70526); test: Ki on membrane preparations of guinea-pig ileum, 3H-bradykinin competition; type: binding; conditions: 3H-bradykinin 0.25 to 0.3 nmol/l, guinea-pig ileum membranes, room temperature, 60 minutes, pH 6.8
T1 construct: membrane preparations of the guinea-pig ileum; from tissue; host or cells: guinea-pig ileum membranes
T1 sequence (O70526 1-372): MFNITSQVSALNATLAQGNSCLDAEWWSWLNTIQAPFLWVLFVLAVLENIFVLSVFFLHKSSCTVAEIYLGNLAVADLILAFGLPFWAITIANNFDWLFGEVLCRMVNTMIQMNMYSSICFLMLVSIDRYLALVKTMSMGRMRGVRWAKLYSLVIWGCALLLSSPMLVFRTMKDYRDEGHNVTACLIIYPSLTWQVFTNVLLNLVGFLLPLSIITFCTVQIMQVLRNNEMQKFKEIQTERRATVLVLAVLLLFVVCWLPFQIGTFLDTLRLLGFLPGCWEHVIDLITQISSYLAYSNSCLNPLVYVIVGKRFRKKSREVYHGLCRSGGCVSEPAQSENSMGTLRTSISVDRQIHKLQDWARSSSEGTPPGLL
Description: B. Innis et al., Proc. Natl. Acad. Sci. USA, 17 (1981) 2630) according to the following procedure: […] Ligand: ^3 H-BRADYKININ (from NEN Du Pont) Both buffers are adjusted to pH 6.8 using 5 molar NaOH. Guinea-pig ilea are grossly freed from intestinal contents by careful brushing and cleaned in 0.9% strength NaCl solution. The pieces of ilea about 2 cm long are transferred to ice-cold TES buffer (about 1 g/10 ml) and homogenized in an ice bath for about 30 sec. using an Ultraturrax. The homogenate is then filtered through three layers of gauze, and the filtrate is centrifuged at 50,000 g/10 minutes. The supernatant is discarded, and the pellet is rehomogenized in the same volume of TES buffer and centrifuged again at 50,000 g/10 minutes. The pellet is rehomogenized in incubation buffer (about 1 g/5 ml) and frozen at -70° C. in cryotubes in 2 ml portions. The protein concentration of the finished membrane suspension is determined according to LOWRY and should be about 15 μg/100 μl. All incubations are carried out at room temperature for 60 minutes on microtiter plates (96×300 μl) in a 200 μl volume. All mixtures are in incubation buffer. To this end, 50 μl of the radioligand, 50 μl of the preparation to be tested, and 100 μl of the membrane suspension are pipetted into the hollows of the microtiter plate in succession. Nonspecific binding: for each concentration of the radioactive ligand, the nonspecific binding must be determined. […] In this test, HOE 140 (10 μmol/l) is used. […] The reaction is started by the addition of 100 μl of the membrane suspension. Here a fixed quantity of the radioactive ligand (0.25 to 0.3 nmol/l of ^3 H-bradykinin) and various concentrations of the unlabeled agonists or antagonists are employed. 50 μl of the preparations or standard to be tested in the concentrations 10^-5 to 10^-10 mol/l are added to 50 μl in each case of the ^3 H-bradykinin solution, and the reaction is started by addition of 100 μl of membrane suspension. Triplicate determinations also are carried out in this test, and three samples are incubated with 10 μmol/l of HOE 140 to determine the nonspecific binding. The preparations to be tested for competition are completely dissolved in a concentration of 1 mmol/l in dimethyl sulfoxide (DMSO), and then further diluted with DMSO. This solution is then diluted 1:25 with incubation buffer. […] The still moist filters are punched out into mini-scintillation tubes, and these are filled with 3 ml of scintillator. After a soaking time of about 12 hours, the samples are briefly shaken and measured in a beta-counter. […] If a displacement of the radioligand of 50% or more is detectable at the highest concentration, a complete analysis (competition experiment) is carried out using at least 8 concentrations. Assessment is carried out by means of the LIGAND program package (McPherson, Minson & Rodbard, marketed by: Elsevier-BIOSOFT), which carries out the necessary calculations for the determination of IC50 and Ki values. This program moreover carries out graphic presentations of the saturation or displacement curves as well as the SCATCHARD plot, HILL plot, or HOFSTEE plot.

[1] = test system: bradykinin-induced contraction of the guinea-pig ileum; test: bradykinin-induced contraction of the guinea-pig ileum; conditions: isolated guinea-pig ileum, bradykinin 4×10^-8 mol/l, antagonist action time 10 min, 37° C.
Description: In addition, for the determination of the bradykinin-antagonistic action of the compounds of fomula (I), their effect on the bradykinin-induced contraction of the guinea-pig ileum can be measured according to the following protocol:
Guinea-pigs about 300 g in weight (Morioth strain, .male..female.) are killed by a blow to the neck and exsanguinated. The ileum is dissected out in a length of about 20 cm, rinsed with Tyrode solution (Record Syringe), and thus freed from the intestinal contents. It is then divided into sections 1.5 cm long. These are fixed in organ baths of 10 ml capacity, which are filled with Tyrode solution, and connected to extension-measuring strips (isometric contraction measurement). The preload is 1 g. The Tyrode solution is warmed to 37° C. in a water bath and bubbled through with compressed air. After an interval of 30 min, the experiment is begun. After recording the biological zero line, bradykinin in a final concentration of 4×10^-8 mol/l is added per organ bath, and the […] is recorded. Rinsing with Tyrode solution is then carried out for three min., and after a break of 20 min., bradykinin is again added. The maximum of the contraction is achieved (control). Rinse again, break. […] The experiment is recorded on a pen recorder.
Thus, the compounds of Examples 6 and 20, for example, have the following IC50 values determined by the above procedure: […]

| SMILES | Ki (bradykinin β2 receptor) [nM] | IC50 [1] [nM] |
| --- | --- | --- |
| COC(=O)CCCCC(=O)NCC(=O)N(C)c1ccc(OC)c(COc2cccc3ccc(C)nc23)c1SC [Example 20, 8-[6-Methoxy-2-methylthio-3-(N-5-methoxycarbonylpentanoylglycyl-N-methyl)aminobenzyloxy]-2-methylquinoline] | 5.4 | 56 |
| COc1c(N(C)C(=O)CNC(=O)/C=C/c2ccc(C(F)(F)F)cc2)ccc(SC)c1COc1cccc2ccc(C)nc12 [Example 16] | 17.4 | – |
| CCNC(=O)NCC(=O)N(C)c1ccc(OC)c(COc2cccc3ccc(C)nc23)c1C#N [Example 9, N-[2-Cyano-4-methoxy-3-(2-methylquinolin-8-yloxymethyl)phenyl]-2-(3-ethylureido)-N-methylacetamide] | 6 | – |
| Cc1ccc2cccc(OCc3c(Cl)ccc(N(C)C(=O)CNC(=O)NCCCCN)c3C#N)c2n1 [Example 6, 8-[6-Chloro-2-cyano-3-[N-(4-aminobutylaminocarbonylglycyl-N-methyl]aminobenzyloxy]-2-methylquinoline bistrifluoroacetate] | 0.1 | 350 |

Now from value to compound:

| Ki (bradykinin β2 receptor) [nM] | IC50 [1] [nM] | SMILES |
| --- | --- | --- |
| 1 | – | CSc1ccc(N(C)C(=O)CNC(=O)/C=C/c2ccc(NC(C)=O)nc2)c(SC)c1COc1cccc2ccc(C)nc12 [Example 24, 8-[2,6-Dithiomethyl-3-(3-(6-acetylaminopyridin-3-yl)acryloylglycyl-N-methyl)aminobenzyloxy]-2-methylquinoline] |
| 8.3 | – | CCNC(=O)NCC(=O)N(C)c1ccc(Cl)c(COc2cccc3ccc(C)nc23)c1C#N [Example 1, 8-[6-Chloro-2-cyano-3-(N-ethylaminocarbonylglycyl-N-methyl)amino-benzyloxy]-2-methylquinoline] |
